pEC50: −log10 of the molar value. “Also recorded” adds a separate entry of the source.
Legend:
[1] = molecular target: T1, human olfactory receptor OR1A1 (Homo sapiens, UniProt Q9P1Q5); assay: Dual-Glo luciferase assay of olfactory receptor activation (agonist dose-response); type: cell-based; conditions: for agonist activity / response of OR1A1 (in words): luciferase assay, normalized responses; for pEC50: OR1A1 response, best-fit value with 95% confidence interval, EC50 = ligand concentration for half-maximal response
T1 construct: expressed in transfected cells; host or cells: HEK293T-derived cells
T1 sequence (Q9P1Q5 1-309): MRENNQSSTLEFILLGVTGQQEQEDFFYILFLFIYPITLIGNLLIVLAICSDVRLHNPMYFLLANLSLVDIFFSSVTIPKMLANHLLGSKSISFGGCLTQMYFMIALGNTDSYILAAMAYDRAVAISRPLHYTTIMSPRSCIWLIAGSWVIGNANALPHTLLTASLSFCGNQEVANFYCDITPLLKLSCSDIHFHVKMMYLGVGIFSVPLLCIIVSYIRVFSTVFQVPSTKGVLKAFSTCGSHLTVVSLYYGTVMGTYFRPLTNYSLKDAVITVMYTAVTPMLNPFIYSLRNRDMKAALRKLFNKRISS
Protocol: Olfactory receptor activation was evaluated using the Dual-Glo Luciferase Assay System (Promega (Beijing) Biotech Co., Ltd., Beijing, China). HEK293T-derived cells were maintained in minimal essential medium (Sigma) containing 10% fetal bovine serum (Sigma) (M10), 500 µg/mL penicillin–streptomycin (Invitrogen), and 6 µg/mL amphotericin B (Sigma) in a 37 °C incubator with 5% CO2. After culturing to a desired confluence, the cells were plated on 96-well plates (Corning Inc., Kennebunk, ME, USA). For each 96-well plate, 1 μg of CRE-luciferase, 0.5 μg of pRL-SV40, 0.5 μg of OR, 0.5 μg of RTP1S, and 0.25 μg of M3R were transfected using the transfection reagent Lipofectamine2000 (Invitrogen, Life Technologies Corp., Carlsbad, CA, USA). Twenty-four hours post transfection, the transfection media were removed, and the cells were rinsed with 50 μL PBS buffer (pH 7.4) per well. The cells were then stimulated with 25 μL 1% (v/v) ligand samples diluted in CD293 stimulation medium (Gibco Brand, ThermoFisher Biochemical Products (Beijing) Co., Ltd., Beijing, China). Four hours post stimulation, firefly luciferase (FL) and Renilla luciferase (RL) activities were measured following manufacturer’s protocols, using a Synergy H1 plate reader (BioTek Instruments, Winooski, VT, USA). Normalized luciferase activity was calculated using the formula: FL/RLX-FL/RLXC, where FL/RLX is the response to the ligands, FL/RLXC is the basal value of the same OR. Each experiment was repeated at least 3 times and error bars indicate standard error mean. Data were analyzed with GraphPad Prism.

[2] = test system: OR1A1 olfactory receptor; conditions: cited from earlier work; for agonist quality on OR1A1 (in words): known OR1A1 agonists, Introduction and Figure 1, reference numbers not given; for pEC50: enantiomers of citronellol on OR1A1, already reported, reference number not given

agonist activity / response of OR1A1 (in words) [1] | pEC50 [1] | SMILES | also measured
weakest agonist in this alcohol series |  | CC(C)(O)C#CC#Cc1ccc(C(C)(C)C)cc1 [compound 22] | 
 |  | CC(C)=CCCC(C)CCO (centres unmarked) [compound 7, citronellol] | agonist quality on OR1A1 (in words) [2]: good agonist
displayed a stronger response |  | CC(C)(C)C#CC#Cc1ccc2c(c1)COC2 [compound 18] | 
 | 4.62 | C[C@H](O)C#CC#Cc1ccc(C(C)(C)C)cc1 [(S)-21] | 
 |  | CC(=O)c1c(C)c([N+](=O)[O-])c(C(C)(C)C)c([N+](=O)[O-])c1C [compound 2, musk ketone] | agonist quality on OR1A1 (in words) [2]: very poor agonists
strongest agonist effect | 5.13 | C[C@@H](O)C#CC#Cc1ccc(C(C)(C)C)cc1 [(R)-21] | 
essentially inactive |  | CC(=O)C#CC#Cc1ccc(C(C)(C)C)cc1 [compound 15] | 
 |  | CC(C)=CCC[C@@H](C)CCO [(R)-7, citronellol] | pEC50 [2]: 4.08
 |  | C[C@@H]1CCCCCCCCCCCCC(=O)C1 [compound 1, muscone] | agonist quality on OR1A1 (in words) [2]: very poor agonists
not active |  | CC(C)(C)C#CC#Cc1ccc2c(c1)C(=O)CC2 [compound 16] | 
 |  | CC(C)=CCC[C@H](C)CCO [(S)-7, citronellol] | pEC50 [2]: 4.03
activated OR1A1 | 4.45 | CC(=O)c1cccc(C#CC#CC(C)(C)C)c1 [compound 14] | 
 |  | CCCCCC(=O)C(C)C(C)=O (centres unmarked) [compound 9, 3-methyl-2,4-nonanedione] | agonist quality on OR1A1 (in words) [2]: extremely potent agonist

SMILES | agonist activity / response of OR1A1 (in words) [1] | pEC50 [1] | also measured
CC(=O)c1cccc(C#CC#CC#CC(C)(C)C)c1 [compound 19] | did not result in an active compound; also recorded: weak agonist |  | 
CC(O)C#CC#Cc1ccc(C(C)(C)C)cc1 (centres unmarked) [compound 21] | much stronger interaction with the OR1A1 receptor than the corresponding ketone 15 | 4.36 | 
CC(=O)c1ccc(C#CC#CC(C)(C)C)cc1 [compound 13] | activated OR1A1 | 4.44 | 
CC(C)(C)C#CC#Cc1cccc2c1CCC2=O [compound 17] | micromolar range potency with modest to good agonist efficacy |  | 
CC(C)(C)c1ccc(C#CC#CCO)cc1 [compound 20] | strong agonist activity | 4.37 | 

Reference: PMC12207589, “Exploring Linear mono-, bis- and tris-Acetylene Containing Agonists of the Human Olfactory Receptor OR1A1” (Journal of Medicinal Chemistry, 2025)
